From ChEMBL document CHEMBL5465560, “Selectivity Literature for EUbOPEN Chemogenomic Library” (2024)
Changes are numbered by the printed parent chain.

Tests used:
[1] = molecular target: T1, Atypical kinase COQ8B, mitochondrial (Homo sapiens) (UniProt Q96D53); assay: Selectivity interaction (KinomeScan (DiscoverX)) EUB0000045b ADCK4
T1 sequence (whole entry): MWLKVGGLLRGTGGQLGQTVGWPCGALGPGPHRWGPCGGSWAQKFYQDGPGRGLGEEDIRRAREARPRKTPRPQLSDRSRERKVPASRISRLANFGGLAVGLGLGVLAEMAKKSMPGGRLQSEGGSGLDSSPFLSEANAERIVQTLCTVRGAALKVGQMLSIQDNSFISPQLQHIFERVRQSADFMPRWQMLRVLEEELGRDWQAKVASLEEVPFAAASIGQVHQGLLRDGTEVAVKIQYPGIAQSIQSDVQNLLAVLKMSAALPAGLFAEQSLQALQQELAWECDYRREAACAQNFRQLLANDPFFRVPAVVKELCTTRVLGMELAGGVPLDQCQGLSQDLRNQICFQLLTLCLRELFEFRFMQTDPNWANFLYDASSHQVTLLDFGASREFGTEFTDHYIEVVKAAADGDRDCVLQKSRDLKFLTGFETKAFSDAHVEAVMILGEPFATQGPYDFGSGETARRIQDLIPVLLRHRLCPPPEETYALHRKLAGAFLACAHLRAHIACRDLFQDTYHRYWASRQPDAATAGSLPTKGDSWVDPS

[2] = system: T2, Receptor-type tyrosine-protein kinase FLT3 (Homo sapiens), P36888 [D835H]; assay: (§1) Selectivity interaction (KinomeScan (DiscoverX)) EUB0000618a FLT3; settings: at 10 µM
T2 sequence (whole entry): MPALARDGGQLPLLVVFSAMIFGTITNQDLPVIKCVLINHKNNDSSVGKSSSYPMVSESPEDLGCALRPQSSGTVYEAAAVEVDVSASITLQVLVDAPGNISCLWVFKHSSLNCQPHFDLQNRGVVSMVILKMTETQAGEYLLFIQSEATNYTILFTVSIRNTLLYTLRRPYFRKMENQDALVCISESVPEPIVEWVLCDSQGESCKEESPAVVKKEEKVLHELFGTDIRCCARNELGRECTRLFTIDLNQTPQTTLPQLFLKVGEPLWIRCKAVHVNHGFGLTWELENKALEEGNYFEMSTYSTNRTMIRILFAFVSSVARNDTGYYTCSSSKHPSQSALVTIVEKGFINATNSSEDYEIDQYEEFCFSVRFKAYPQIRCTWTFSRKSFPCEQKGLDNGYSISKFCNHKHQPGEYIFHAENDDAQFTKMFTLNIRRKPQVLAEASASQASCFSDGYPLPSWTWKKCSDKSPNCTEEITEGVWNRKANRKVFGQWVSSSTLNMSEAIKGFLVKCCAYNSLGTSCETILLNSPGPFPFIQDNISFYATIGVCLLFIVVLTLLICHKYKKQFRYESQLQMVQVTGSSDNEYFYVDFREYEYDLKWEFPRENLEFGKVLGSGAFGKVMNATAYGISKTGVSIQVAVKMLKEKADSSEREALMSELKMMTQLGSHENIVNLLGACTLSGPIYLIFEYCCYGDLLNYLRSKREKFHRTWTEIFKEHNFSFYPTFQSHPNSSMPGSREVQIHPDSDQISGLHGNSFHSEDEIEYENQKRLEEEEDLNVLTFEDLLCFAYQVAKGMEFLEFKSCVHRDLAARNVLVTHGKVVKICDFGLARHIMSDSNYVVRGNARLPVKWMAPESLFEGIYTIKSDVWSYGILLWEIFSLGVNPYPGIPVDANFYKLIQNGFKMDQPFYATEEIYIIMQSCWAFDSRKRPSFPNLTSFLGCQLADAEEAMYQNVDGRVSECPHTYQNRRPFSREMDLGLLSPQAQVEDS

[3] = molecular target: Receptor-type tyrosine-protein kinase FLT3 (Homo sapiens) (UniProt P36888); assay: as §1; settings: at 10 µM
[4] = system: T3, Receptor-type tyrosine-protein kinase FLT3 (Homo sapiens), P36888 [K663Q]; assay: as §1; settings: at 10 µM
T3 sequence (whole entry): T2 sequence (whole entry) with K663Q, H835D

Structure (SMILES)	% of control ([1]; at 1 µM) [%]	% of control ([1]; at 10 µM) [%]	% of control [2] [%]	% of control [3] [%]	% of control [4] [%]
C=CC(=O)Nc1cc(-n2c(=O)ccc3cnc4ccc(-c5ccc(NS(C)(=O)=O)cc5)cc4c32)ccc1C	100	64			
O[C@H]1CC[C@H](Nc2ncc3nc(Nc4c(F)cc(F)cc4F)n([C@H]4CCOC4)c3n2)CC1			67	97	100
